Measurements as given in PubChem BioAssay AID1996.
In brackets after ≈: the same amount, converted by molar mass.

Conditions: buffer; pH 7.4; 200.0 µM

SMILES | solubility kinetic [µg/mL]
Cc1ccc(S(=O)(=O)/N=C(/Nc2ccccc2C)c2ccccc2)cc1 | 39.8 (≈ 109 µM)
O=C(c1ccc2ccccc2c1)N1CCN(Cc2ccccc2)CC1 | > 49.6
O=C(Nc1cc2c3c(c1)CC(=O)N3CCC2)c1cccc(F)c1 | 10.5 (≈ 33.8 µM)
COC(=O)c1ccc(CNC(=O)c2ccc3c(c2)OCCO3)cc1 | 45.5 (≈ 139 µM)
CC(=O)c1ccc(S(=O)(=O)N2CCN(CCOc3ccccc3)CC2)cc1 | 53.6 (≈ 138 µM)
Cc1ccc(C(=O)COC(=O)c2cnccn2)cc1C | 38.7 (≈ 143 µM)
CCNc1cc(N2CCOCC2)nc(SC)n1 | > 38.2
COc1ccc(SCCC(=O)NCc2ccncc2)cc1 | > 45.4
CC(=O)N/C(=C\c1ccc2c(c1)OCO2)C(=O)NC(C(=O)O)c1ccccc1 (stereo not drawn) | > 57.4
Cc1ccc2nc(-c3ccc(N)cc3)sc2c1 | 1.1 (≈ 4.58 µM)
CC(=O)Nc1ccc(N=Cc2c(O)c3ccccc3oc2=O)cc1 | 3.8 (≈ 11.8 µM)
C/C(=N\OC(=O)c1ccc(C)cc1)c1c(C)nc2cc(C)ccn12 | 6.6 (≈ 20.5 µM)
CC1CCCC(NC(=O)CSc2ncccn2)C1C (stereo not drawn) | > 41.9
CCSc1nc2sccc2c(=O)n1-c1ccccc1 | 27.3 (≈ 94.7 µM)
C[C@H](NC(=O)c1ccccc1)C(=O)OCC(=O)Nc1sccc1C(N)=O | > 56.3
O=c1c2c3c(sc2nc(NCCO)n1-c1ccccc1)CCCC3 | 6.8 (≈ 19.9 µM)
COc1ccccc1N(CCC#N)C(=S)Nc1ccc(S(=O)(=O)N2CCOCC2)cc1 | > 69.1
Cc1cccc(NC(=O)CN(CC2CCCO2)C(=O)c2cc(S(=O)(=O)N(C)C)ccc2F)c1C (stereo not drawn) | > 73.7
COc1ccc(C(=O)Nc2ccc(NC(=O)C3CCCCC3)nc2)cc1 | 0.4 (≈ 1.13 µM)
CCOc1ccc(C2(C)CC(=O)N(C)C2=O)cc1 (stereo not drawn) | 11.4 (≈ 46.1 µM)
Clc1ccc(N=c2ssnc2Cl)cc1 | 2.7 (≈ 10.3 µM)

SMILES | solubility kinetic [µg/mL]
C=CCOc1ccc(CNc2ccc3[nH]c(=O)[nH]c3c2)cc1OC | 2.7 (≈ 8.3 µM)
COc1nc(N)nc(N)c1NS(=O)(=O)c1ccc(C)cc1 | > 46.4
Cc1cc(C(=O)N2CCN(c3ccccc3Cl)CC2)c(C)o1 | > 47.8
Cc1ccccc1NC(=O)c1ccco1 | > 30.2
O=S(=O)(c1ccc(Cl)nc1)N1CCc2ccccc21 | 24.9 (≈ 84.5 µM)
O=C(CCNC(=O)c1ccco1)Nc1ccc(OC(F)(F)F)cc1 | 19.7 (≈ 57.6 µM)
COc1cc([N+](=O)[O-])ccc1NC(=O)Nc1cccnc1 | 1 (≈ 3.47 µM)
O=C(CC12CC3CC(CC(C3)C1)C2)NCc1ccc(F)cc1 | < 0.6
CC(NC(=S)Nc1ccc(F)cc1)c1ccccc1 (stereo not drawn) | 27.7 (≈ 101 µM)
CN1C(=O)C2C3c4ccccc4C(c4ccccc43)[C@@H]2C1=O (stereo partly drawn) | 2 (≈ 6.91 µM)
O=C(C[n+]1cccc(O)c1)NCc1ccc(Cl)cc1.[Cl-] | > 47
COc1ccccc1C1=NOC(CN2C(=O)c3ccccc3S2(=O)=O)C1 (stereo not drawn) | 34.6 (≈ 92.9 µM)
CCOc1ccc(S(=O)(=O)NCCC(=O)N2CCC(Cc3ccccc3)CC2)cc1 | 12.8 (≈ 29.7 µM)
O=C(Nc1ccccc1F)c1cc(-c2ccco2)nc2ccccc12 | 0.7 (≈ 2.11 µM)
Cc1nc2c(ccc3c([N+](=O)[O-])cccc32)c(C)c1C | 0.8 (≈ 3 µM)
CCc1noc(C)c1C(=O)OCC(=O)NC(=O)c1ccccc1 | > 47.4
C=CCN1C(=O)C2(OCCCO2)c2cccc(C)c21 | 37.9 (≈ 146 µM)
CN(C)c1ccc(-c2nc3cc(N)ccc3o2)cc1 | 14 (≈ 55.3 µM)
O=C1NC(=Nc2cccnc2)S/C1=C\c1cccc(F)c1 | 3.2 (≈ 10.7 µM)
COC(OC)C1(C)C(C#N)=C(N)Oc2c1c(=O)oc1ccccc21 (stereo not drawn) | 5.3 (≈ 16.1 µM)
COc1ccccc1N1CC(C)(C)C(=O)N(C(=O)c2ccc(C)cc2)C1=S | 2.1 (≈ 5.49 µM)

SMILES | solubility kinetic [µg/mL]
Nc1cccc(NP(=O)(c2ccccc2)c2ccccc2)c1 | 1.7 (≈ 5.51 µM)
Cc1ccsc1C(=O)N1CC=C(c2ccccc2)CC1 | > 42.5
O=C(COc1ccc2ccccc2c1)Nc1ccncc1 | 6.1 (≈ 21.9 µM)
CC1CC(C)(C)NC(=S)N1CCC(=O)N1c2ccccc2CC1C (stereo not drawn) | 5.3 (≈ 15.3 µM)
O=C(Nc1ccc(C(=O)O)cc1)Nc1cccc2ccccc12 | > 45.9
COc1ccc(C(=O)NCC2OCCc3ccccc32)cc1OC (stereo not drawn) | 11.8 (≈ 36 µM)
CC1=C([N+](=O)[O-])C(c2ccccc2C(F)(F)F)NC(=O)N1C (stereo not drawn) | > 47.3
COc1ccc(C(=O)NCc2ccccn2)cc1[N+](=O)[O-] | > 43.1
O=C(CSc1nnc(-c2ccccc2)o1)NC1CC1 | > 41.3
COc1cc(C(=O)N=c2sccn2C)c([N+](=O)[O-])cc1OC | 47.2 (≈ 146 µM)
CC(C)c1ccccc1-n1cc[nH]c1=S | > 32.7
COc1ccc(NC(=O)/C=C/c2ccc(OC)c(OC)c2)cn1 | 11.3 (≈ 35.9 µM)
Cc1ccc(NC(=O)C(=O)Nc2ccc(C)cn2)nc1 | 1.8 (≈ 6.66 µM)
O=C(c1cccs1)N1CCN(c2ncc(Br)cn2)CC1 | 9.5 (≈ 26.9 µM)
O=C(c1ccccc1)N1CCCN(c2nccc(C(F)(F)F)n2)CC1 | 44.8 (≈ 128 µM)
COc1cc(Cl)c(C)cc1Nc1ncccn1 | 22.4 (≈ 89.7 µM)
O=C(NCc1ccncc1)C(=O)Nc1nccs1 | > 39.3
CCC(CC)C(=O)c1c[nH]c(C(=O)NCc2cccnc2)c1 | 42.2 (≈ 141 µM)
O=C(NCc1ccco1)c1ccc(-c2cccc(Cl)c2)o1 | 1.3 (≈ 4.31 µM)
O/N=C/Cc1[nH]c2ccccc2c1-c1ccccc1 | 34.8 (≈ 139 µM)
CCCS(=O)(=O)N1CCN=C1SCc1cccc(F)c1 | 39.6 (≈ 125 µM)

SMILES | solubility kinetic [µg/mL]
COc1ccc(Cn2c(=S)[nH]c3ccccc32)cc1 | 1.2 (≈ 4.44 µM)
Cc1ccc(NC(=O)C2Cc3ccccc3C(=O)O2)cc1 (stereo not drawn) | 4.7 (≈ 16.7 µM)
O=C(NCc1ccccc1)c1c[nH]c2ccc(F)cc2c1=O | 9.1 (≈ 30.7 µM)
O=C(CN1CCC(c2nc3ccccc3s2)CC1)N1CCCCC1 | > 51.5
O=C(Nc1cccc(S(=O)(=O)N2CCOCC2)c1)C12CC3CC(CC(C3)C1)C2 | 2.2 (≈ 5.44 µM)
Cc1cc2nc3n(c2cc1C)CCCN3 | > 30.2
O=[N+]([O-])c1ccc(-c2nc(C(Cl)Cl)c3ccccc3n2)cc1 | 0.5 (≈ 1.5 µM)
Cc1cc(OC(=O)c2cccc(F)c2)c([N+](=O)[O-])c(=O)[nH]1 | > 43.8
CC1=C(C)CC(C(=O)NC2CCCC2)C(C(=O)O)C1 (stereo not drawn) | > 39.8
COc1ccc(OC)c(N/C(=N/c2nc(C)cc(C)n2)NC(C)=O)c1 | 0.6 (≈ 1.75 µM)
Cc1ccc(Nc2cc(=O)[nH]c(=O)[nH]2)cc1Cl | 2 (≈ 7.95 µM)
O=C(Nc1ccnc(-c2ccncc2)n1)c1ccc(F)cc1 | 0.4 (≈ 1.36 µM)
CC(C)(C)S(=O)(=O)/C(C#N)=C/c1sccc1C1OCCO1 | 35.4 (≈ 108 µM)
Cn1cnc2c(N/N=C/c3cccs3)ncnc21 | > 38.7
CC(=O)c1ccc(NC(=O)COC(=O)CC2CC3CCC2C3)cc1 (stereo not drawn) | 37.5 (≈ 114 µM)
CS(=O)(=O)N1CCC(C(=O)NCc2ccc(F)cc2)CC1 | > 47.2
O=C(NCc1ccccc1)c1cc2ccc(O)cc2oc1=O | 6.3 (≈ 21.3 µM)
O=C(c1cc(F)c(F)cc1Cl)N1CCCc2ccccc21 | 30.3 (≈ 98.5 µM)
CC(C)=C(NC(=O)c1ccccc1)C(=O)Nc1cccc(C)c1 | 2.8 (≈ 9.08 µM)

Further lines, results first:

solubility kinetic [µg/mL] | SMILES
> 23.3 | O=C(O)/C=C/C(=O)NC1CC1
> 46.2 | O=C(COC(=O)c1ccccc1F)NC(=O)NC1CCCC1
44.9 (≈ 119 µM) | O=C(O)CC1(CC(=O)NCc2csc(-c3cccs3)n2)CCCCC1
> 38.6 | Cl.NC(c1ccccc1)c1ccncc1 (stereo not drawn)
> 41.6 | Cc1cccc(S(=O)(=O)c2c(C)cc(C)[nH]c2=O)c1
35.7 (≈ 133 µM) | COc1ccc([N+](=O)[O-])cc1NC(=O)COC(C)=O
> 45 | O=C(O)c1ccccc1Nc1ccc2nonc2c1[N+](=O)[O-]
> 44.2 | O=C(COC(=O)c1cccnc1Cl)NCc1ccco1
4.5 (≈ 14.1 µM) | COC(=O)c1c(C)[nH]c(C(=O)C(C)OC(=O)c2ccco2)c1C (stereo not drawn)
1.1 (≈ 3.33 µM) | O=C(NC(=S)Nc1ccc2[nH]c(=O)[nH]c2c1)c1ccccc1F
> 48.4 | NS(=O)(=O)c1ccc(CNC(=O)Cc2ccccc2F)cc1
2.8 (≈ 11.7 µM) | c1ccc(CSc2cc3ccccc3[nH]2)cc1
> 40.7 | CSc1ccccc1C(=O)N(C)Cc1ccccc1
34.9 (≈ 133 µM) | Cn1c(-c2ccccc2)cnc1NCc1ccccc1
> 66.4 | CCCN(C(=O)/C=C/c1ccc(S(=O)(=O)N(CC)CC)cc1)C1CCS(=O)(=O)C1 (stereo not drawn)
> 72.2 | CC1CN(S(=O)(=O)c2cccc(C(=O)NCCc3ccc(S(N)(=O)=O)cc3)c2)CC(C)O1 (stereo not drawn)
> 50.2 | Cc1nnc(SCC(=O)Nc2ccc(N(C)C)cc2)n(N)c1=O
< 0.7 | CC(=O)c1ccc(OCCOc2ccc(Cl)c3cccnc23)cc1

solubility kinetic [µg/mL] | SMILES
0.5 (≈ 1.6 µM) | CSc1ccc(Cl)c(C(=O)Nc2ccc(Cl)cn2)c1
8.6 (≈ 25.9 µM) | O=C(NCCCCc1ccccc1)c1ccccc1Br
8.1 (≈ 26 µM) | O=C(CCSCc1ccccc1Cl)NC1CCCCC1
> 45.3 | Cc1noc(C)c1C(=O)OC(C)C(=O)N(C)c1ccccc1 (stereo not drawn)
0.9 (≈ 2.03 µM) | CCCS(=O)(=O)c1cscc1NC(=O)c1c(-c2c(F)cccc2Cl)noc1C
> 61.6 | CC(CN(C)C)CN1c2ccccc2CCc2ccccc21.O=C(O)/C=C\C(=O)O (stereo not drawn)
1.5 (≈ 4.74 µM) | O=C(/C=C/c1ccccc1[N+](=O)[O-])NCc1ccccc1Cl
2.1 (≈ 7.44 µM) | Cc1sc(N)nc1-c1ccc(Oc2ccccc2)cc1
> 54 | Cc1nc2c(C)[n+](CC(=O)c3ccccc3)ccc2n1C.[Br-]
> 60 | O=C(O)CC1(CC(=O)Nc2ccc(Cl)cc2C(=O)c2ccccc2)CCCC1
16.8 (≈ 45.1 µM) | O=C(Oc1ccc(C(=S)N2CCOCC2)cc1)c1ccccc1[N+](=O)[O-]
18.3 (≈ 59.2 µM) | O=C(NC(=O)c1cnccc1C(F)(F)F)Nc1ccccc1
19.6 (≈ 68.4 µM) | Cc1cc(C(=O)NC2CCCCC2)c2cc(F)ccc2n1
17.7 (≈ 55.1 µM) | Cc1ccc(NC(=O)COc2ccc(Br)cn2)cc1
< 0.3 | CSc1ncccc1C(=O)OCc1cccc([N+](=O)[O-])c1
> 50.4 | O=C(c1ccc(Cl)cc1Cl)N1CCN(c2ccccn2)CC1
< 0.3 | COc1ccc(-c2csc(NC(=O)c3ccoc3C)n2)cc1
7.4 (≈ 26.2 µM) | Cc1ccc(-c2nc(-c3ccccn3)no2)cc1[N+](=O)[O-]
